Legend:
Assay type in all cases: in vivo
[1] = test system: Pharbitis purpurea; assay: Post-emergence herbicidal activity against PHBPU; conditions: dosage 320 g/ha, rated about 3 weeks after treatment
Method: (§1) LOLRI: Lolium rigidum PHBPU: Pharbitis purpurea 2. Post-Emergence Herbicidal Action and Crop Plant Compatibility Seeds of monocotyledonous and dicotyledonous weeds and crop plants are placed in sandy loam in plastic or wood-fiber pots, covered with soil and cultivated in a greenhouse under controlled growth conditions. 2 to 3 weeks after sowing, the test plants are treated at the one-leaf stage. The compounds of the invention, formulated in the form of wettable powders (WP) or as emulsion concentrates (EC), are then sprayed onto the green parts of the plants as aqueous suspension or emulsion with addition of 0.5% additive at a water application rate of 600 l/ha (converted). After the test plants had been kept in the greenhouse under optimum growth conditions for about 3 weeks, the activity of the preparations is rated visually in comparison to untreated controls. For example, 100% activity=the plants have died, 0% activity=like control plants.

[2] = test system: Lolium rigidum; assay: Post-emergence herbicidal activity against LOLRI; conditions: dosage 320 g/ha, rated about 3 weeks after treatment
Method: as §1

[3] = test system: Veronica persica; assay: Post-emergence herbicidal activity against VERPE; conditions: dosage 320 g/ha
Method: as §1, with “STEME: Stellaria media VERPE: Veronica persica” for “LOLRI: Lolium rigidum PHBPU: Pharbitis purpurea”

[4] = test system: Amaranthus retroflexus; assay: Post-emergence herbicidal activity against AMARE; conditions: dosage 320 g/ha, rated about 3 weeks after treatment
Method: as §1, with “AMARE: Amaranthus retroflexus AVEFA: Avena fatua” for “LOLRI: Lolium rigidum PHBPU: Pharbitis purpurea”

[5] = test system: Stellaria media; assay: Post-emergence herbicidal activity against STEME; conditions: dosage 320 g/ha, rated about 3 weeks after treatment
Method: as §1, with “STEME: Stellaria media VERPE: Veronica persica” for “LOLRI: Lolium rigidum PHBPU: Pharbitis purpurea”

[6] = test system: Viola tricolor; assay: Post-emergence herbicidal activity against VIOTR; conditions: dosage 320 g/ha, rated about 3 weeks after treatment
Method: as §1, with “VIOTR: Viola tricolor” for “LOLRI: Lolium rigidum PHBPU: Pharbitis purpurea”

[7] = test system: Echinochloa crus-galli; assay: Post-emergence herbicidal activity against ECHCG; conditions: dosage 320 g/ha, rated about 3 weeks after treatment
Method: as §1, with “ECHCG: Echinochloa crus-galli HORMU: Hordeum murinum” for “LOLRI: Lolium rigidum PHBPU: Pharbitis purpurea”

[8] = test system: Avena fatua; assay: Post-emergence herbicidal activity against AVEFA; conditions: dosage 320 g/ha, rated about 3 weeks after treatment
Method: as §1, with “AMARE: Amaranthus retroflexus AVEFA: Avena fatua” for “LOLRI: Lolium rigidum PHBPU: Pharbitis purpurea”

[9] = test system: Abutilon theophrasti; assay: Post-emergence herbicidal activity against ABUTH; conditions: dosage 320 g/ha, rated about 3 weeks after treatment
Method: as §1, with “ABUTH: Abutilon theophrasti ALOMY: Alopecurus myosuroides” for “LOLRI: Lolium rigidum PHBPU: Pharbitis purpurea”

[10] = test system: Setaria viridis; assay: Post-emergence herbicidal activity against SETVI; conditions: dosage 320 g/ha, rated about 3 weeks after treatment
Method: as §1, with “POLCO: Polygonum convolvulus SETVI: Setaria viridis” for “LOLRI: Lolium rigidum PHBPU: Pharbitis purpurea”

[11] = test system: Polygonum convolvulus; assay: Post-emergence herbicidal activity against POLCO; conditions: dosage 320 g/ha, rated about 3 weeks after treatment
Method: as §1, with “POLCO: Polygonum convolvulus SETVI: Setaria viridis” for “LOLRI: Lolium rigidum PHBPU: Pharbitis purpurea”

[12] = test system: Alopecurus myosuroides; assay: Post-emergence herbicidal activity against ALOMY; conditions: dosage 320 g/ha, rated about 3 weeks after treatment
Method: as §1, with “ABUTH: Abutilon theophrasti ALOMY: Alopecurus myosuroides” for “LOLRI: Lolium rigidum PHBPU: Pharbitis purpurea”

[13] = test system: Hordeum murinum; assay: Post-emergence herbicidal activity against HORMU; conditions: dosage 320 g/ha
Method: as §1, with “ECHCG: Echinochloa crus-galli HORMU: Hordeum murinum” for “LOLRI: Lolium rigidum PHBPU: Pharbitis purpurea”

| SMILES | Post-emergence herbicidal activity against PHBPU in % [1] [%] | Post-emergence herbicidal activity against LOLRI in % [2] [%] | Post-emergence herbicidal activity against VERPE in % [3] [%] | Post-emergence herbicidal activity against AMARE in % [4] [%] | Post-emergence herbicidal activity against STEME in % [5] [%] | Post-emergence herbicidal activity against VIOTR in % [6] [%] | Post-emergence herbicidal activity against ECHCG in % [7] [%] | Post-emergence herbicidal activity against AVEFA in % [8] [%] | Post-emergence herbicidal activity against ABUTH in % [9] [%] | Post-emergence herbicidal activity against SETVI in % [10] [%] | Post-emergence herbicidal activity against POLCO in % [11] [%] | Post-emergence herbicidal activity against ALOMY in % [12] [%] | Post-emergence herbicidal activity against HORMU in % [13] [%] |
| --- | --- | --- | --- | --- | --- | --- | --- | --- | --- | --- | --- | --- | --- |
| CC1(C(=O)NC2COC(C(=O)OCc3cccc(F)c3)C2)CC(c2cc(F)cc(F)c2)=NO1 (mixture of isomers) [I-53] | 90 | 90 | 90 | 90 | 90 | 90 | 90 | 90 | 90 | 90 | 90 | 90 | 90 |
| C=CC1(C(=O)NC2COC(C(=O)OCc3ccc(OC)cc3)C2)CC(c2cc(F)cc(F)c2)=NO1 (mixture of isomers) [I-54] | 90 | 90 | 90 | 80 | 90 | 90 | 90 | 90 | 90 | 90 | 90 | 90 | 90 |
| CC(F)(F)C1(C(=O)NC2COC(C(=O)O)C2)CC(c2cc(F)cc(F)c2)=NO1 (stereo not shown) [I-50] | 90 | 90 | 90 | 80 | 90 | 90 | 90 | 100 | 90 | 90 | 90 | 90 | 100 |
| CC(C)OC(=O)C1CC(NC(=O)C2(C(C)(F)F)CC(c3cc(F)cc(F)c3)=NO2)CO1 (stereo not shown) [I-51] | 90 | 90 | 90 | 80 | 90 | 90 | 90 | 100 | 80 | 90 | 90 | 100 | 90 |

From US11597724B2, “Herbicidally active 3-phenylisoxazoline-5-carboxamides of tetrahydro and dihydrofuran carboxylic acids and esters” (Bayer Aktiengesellschaft, priority 2017, dated 2023)
